| Structure (SMILES) | melting point [°C] |
| --- | --- |
| C=CCC(O)(C(=O)N[C@H]1CN2CCC1CC2)c1cccs1 (stereo partly shown) | 54.4 to 58.3 |
| O=C(N[C@H]1CN2CCC1CC2)C(Cc1ccccc1)c1ccccc1 (stereo partly shown) | 142 |
| O=C(N[C@H]1CN2CCC1CC2)C(O)(c1ccccc1)C1CCCC1 (stereo partly shown) | 69.8 to 73.3 |
| CCCCC(C(=O)N[C@H]1CN2CCC1CC2)c1ccccc1 (stereo partly shown) | 136 |
| C[N+]12CCC(CC1)C(NC(=O)C1c3ccccc3Oc3ccccc31)C2.[Br-] (stereo not shown) | 318 |
| C[N+]12CCC(CC1)C(NC(=O)C1(O)c3ccccc3-c3ccccc31)C2.[Br-] (stereo not shown) | 197.5 to 203.6 |
| O=C(NC1C[N+]2(CCCOc3ccccc3)CCC1CC2)C1(O)c2ccccc2-c2ccccc21.[Br-] (stereo not shown) | 264 |

From patent US7718670B2 (dated 2010)
